Data reported in patent US20050037450A1, “Novel targets for lithium therapy” (Duke University, priority 2002, published 2005).

How the values were obtained:
[1] = biological target: T1, 1ptase D54A (aspartate to alanine) (Bos taurus, UniProt P21327, D54A); test: Lithium inhibition of 1ptase D54A mutant; type: biochemical, bovine
T1 sequence (P21327 1-400 D54A): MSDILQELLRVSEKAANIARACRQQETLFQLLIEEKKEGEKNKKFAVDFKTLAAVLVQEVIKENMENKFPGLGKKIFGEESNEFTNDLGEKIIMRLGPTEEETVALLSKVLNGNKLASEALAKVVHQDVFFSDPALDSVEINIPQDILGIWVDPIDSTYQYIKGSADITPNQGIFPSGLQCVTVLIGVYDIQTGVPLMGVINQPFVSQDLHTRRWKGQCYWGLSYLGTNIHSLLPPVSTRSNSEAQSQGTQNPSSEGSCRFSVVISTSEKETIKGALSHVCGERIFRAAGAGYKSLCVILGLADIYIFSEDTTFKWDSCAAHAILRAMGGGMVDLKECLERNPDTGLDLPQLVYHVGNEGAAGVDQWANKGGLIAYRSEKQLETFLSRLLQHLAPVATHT
Description: Low concentrations of lithium and high concentrations of normally catalytic magnesium inhibit Impase and 1ptase uncompetitively with respect to substrate. The inhibitory effects of lithium and magnesium are mutually exclusive in Impase, implying that the inhibitory metals bind at the same or overlapping sites (Ganzhorn, 1990). Structural studies of 1ptase offered additional evidence. […] This was interpreted to mean that electron-poor lithium was bound at the second metal binding site, excluding the binding of electron-rich gadolinium, leading to a dearth of electron density at this site. This conclusion was supported by mutagenic data in which a residue that anchors the second metal binding site, Asp-54 (homologous to Impase Asp-47 (FIGS. 1 and 2)), was mutated to alanine.
FIG. 24 summarizes the results of mutagenic and crystallography experiments representing the lithium binding site in 1ptase. […] When 1ptase was crystallized in the presence of metal and lithium, however, the density at metal site 2 disappeared. This is explained by the fact that lithium, having only 2 electrons, is invisible (right panel). Therefore, loss of occupancy at metal site 2 is a result of invisible lithium binding there, excluding the binding of more electron rich metals. […]

patients = conditions: cited from earlier work

[Li] [lithium]
Ki [1]: 100 mM | Occurrence of acquired nephrogenic diabetes insipidus (NDI) (patients; patients taking the drug): 20-50% | Patients reporting clinically significant polyuria (patients; patients undergoing lithium therapy): Up to 20%
